How the values were obtained:
MIAPACA2T2 cells [1] = assay: Combination with carboplatin, CellTiter-Glo viability, Fa and CalcuSyn CI; format: cell-based; conditions: 6 days
Procedure: (§1) Cell viability was measured by the CellTiter-Glo Luminescence assay. Raw luminescent values were converted to fraction affected (Fa) with the following equation:
(§2) Synergy analysis was performed using the CalcuSyn software to determine CI scores based on the drug concentrations used and corresponding Fa values.

H292 cells [2] = assay: Combination with pemetrexed, CellTiter-Glo viability, Fa and CalcuSyn CI; conditions: 6 days;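 further: fa derived from CellTiter-Glo luminescence signal, CI calculated in CalcuSyn from doses and Fa, with 0.9–1.1 nearly additive and smaller values indicating synergism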
Procedure: as §1, §2

H292 NSCLC xenografts = assay: H292 NSCLC xenografts, combination with chemotherapy; format: in vivo, mice; conditions: 100 mg/kg orally once daily + paclitaxel 20 mg/kg IP
MIAPACA2T2 cells [3] = assay: Combination with irinotecan, CellTiter-Glo viability, Fa and CalcuSyn CI; format: cell-based; conditions: 6 days
Procedure: as §1, §2

H292 cells [4] = assay: Combination with paclitaxel, CellTiter-Glo viability, Fa and CalcuSyn CI; format: cell-based; conditions: 6 days;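 further: fa derived from raw luminescence, CI computed in CalcuSyn from drug concentrations and Fa, with CI under 0.9 indicating synergism and 0.9 to 1.1 nearly additive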
Procedure: as §1, §2

MIAPACA2T2 cells [5] = assay: Combination with gemcitabine, CellTiter-Glo viability, Fa and CalcuSyn CI; format: cell-based; conditions: 6 days
Procedure: as §1, §2

PSN1 cells = assay: Combination with irinotecan, CellTiter-Glo viability, Fa and CalcuSyn CI; format: cell-based; conditions: 6 days
Procedure: as §1, §2

A549 cells [6] = assay: Combination with paclitaxel, CellTiter-Glo viability, Fa and CalcuSyn CI; format: cell-based; conditions: 6 days;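 further: luminescent viability signal converted to fraction affected (Fa), and Fa with drug concentrations gives the CalcuSyn CI, where 0.9–1.1 is nearly additive and lower CI means stronger synergism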
Procedure: as §1, §2

A549 cells [7] = assay: Combination with pemetrexed, CellTiter-Glo viability, Fa and CalcuSyn CI; conditions: 6 days;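 further: fa derived from raw CellTiter-Glo luminescence, CI computed by CalcuSyn from drug concentrations and Fa, with values below 0.9 meaning synergism and 0.9–1.1 nearly additive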
Procedure: as §1, §2

[8] = Compound G 0.831 μM fixed + Carboplatin 2.47793 μM
[9] = Compound G 0.831 μM fixed + Carboplatin 3.3452 μM
[10] = Compound G 0.831 μM fixed + Carboplatin 4.51602 μM
[11] = Compound G 0.831 μM fixed + Carboplatin 6.09663 μM
[12] = Compound G 0.831 μM fixed + Carboplatin 8.23045 μM
[13] = Compound G 0.831 μM fixed + Carboplatin 11.1111 μM
[14] = Compound G 0.831 μM fixed + Carboplatin 15 μM
[15] = Compound G 0.437382 μM fixed + Pemetrexed 0.082858 μM
[16] = Compound G 0.437382 μM fixed + Pemetrexed 0.140859 μM
[17] = Compound G 0.437382 μM fixed + Pemetrexed 0.239461 μM
[18] = Compound G 0.437382 μM fixed + Pemetrexed 0.407083 μM
[19] = Compound G 0.437382 μM fixed + Pemetrexed 0.692042 μM
[20] = Compound G 0.437382 μM fixed + Pemetrexed 1.17647 μM
[21] = Compound G 0.437382 μM fixed + Pemetrexed 2 μM
[22] = Compound G 0.83102 μM fixed + Irinotecan 0.131072 μM
[23] = Compound G 0.83102 μM fixed + Irinotecan 0.16384 μM
[24] = Compound G 0.83102 μM fixed + Irinotecan 0.2048 μM
[25] = Compound G 0.83102 μM fixed + Irinotecan 0.256 μM
[26] = Compound G 0.83102 μM fixed + Irinotecan 0.4 μM
[27] = Compound G 0.83102 μM fixed + Irinotecan 0.5 μM
[28] = Compound G 0.83102 μM fixed + Irinotecan […]
[29] = Compound G 0.437382 μM fixed + Paclitaxel 0.0005 μM
[30] = Compound G 0.437382 μM fixed + Paclitaxel 0.0007 μM
[31] = Compound G 0.437382 μM fixed + Paclitaxel 0.0009 μM
[32] = Compound G 0.437382 μM fixed + Paclitaxel 0.0011 μM
[33] = Compound G 0.437382 μM fixed + Paclitaxel 0.0015 μM
[34] = Compound G 0.437382 μM fixed + Paclitaxel 0.0019 μM
[35] = Compound G 0.437382 μM fixed + Paclitaxel 0.0025 μM
[36] = Compound G 0.831 μM fixed + Gemcitabine 0.001322 μM
[37] = Compound G 0.831 μM fixed + Gemcitabine 0.001784 μM
[38] = Compound G 0.831 μM fixed + Gemcitabine 0.002409 μM
[39] = Compound G 0.831 μM fixed + Gemcitabine 0.003252 μM
[40] = Compound G 0.831 μM fixed + Gemcitabine 0.00439 μM
[41] = Compound G 0.831 μM fixed + Gemcitabine 0.005926 μM
[42] = Compound G 0.831 μM fixed + Gemcitabine 0.008 μM
[43] = Compound G 0.0213 μM fixed + Irinotecan 0.035117 μM
[44] = Compound G 0.0213 μM fixed + Irinotecan 0.052675 μM
[45] = Compound G 0.0213 μM fixed + Irinotecan 0.079012 μM
[46] = Compound G 0.0213 μM fixed + Irinotecan 0.118519 μM
[47] = Compound G 0.0213 μM fixed + Irinotecan 0.177778 μM
[48] = Compound G 0.0213 μM fixed + Irinotecan 0.266667 μM
[49] = Compound G 0.0213 μM fixed + Irinotecan 0.4 μM

SMILES: Nc1nc2cnc(C(=O)N3CCOC[C@@H]3c3ccc(C(F)(F)F)cc3)cc2c2c1COC2 [Compound G]
- Combination Fa (MIAPACA2T2 cells [1]; [8]): 0.711
- Computed CI value (MIAPACA2T2 cells [1]; [8]): 0.599
- Combination Fa (MIAPACA2T2 cells [1]; [9]): 0.766
- Computed CI value (MIAPACA2T2 cells [1]; [9]): 0.521
- Combination Fa (MIAPACA2T2 cells [1]; [10]): 0.832
- Computed CI value (MIAPACA2T2 cells [1]; [10]): 0.437
- Combination Fa (MIAPACA2T2 cells [1]; [11]): 0.881
- Computed CI value (MIAPACA2T2 cells [1]; [11]): 0.402
- Combination Fa (MIAPACA2T2 cells [1]; [12]): 0.939
- Computed CI value (MIAPACA2T2 cells [1]; [12]): 0.322
- Combination Fa (MIAPACA2T2 cells [1]; [13]): 0.963
- Computed CI value (MIAPACA2T2 cells [1]; [13]): 0.313
- Combination Fa (MIAPACA2T2 cells [1]; [14]): 0.966
- Computed CI value (MIAPACA2T2 cells [1]; [14]): 0.396
- Combination Fa (H292 cells [2]; [15]): 0.602
- Computed CI value (H292 cells [2]; [15]): 1.359
- Combination Fa (H292 cells [2]; [16]): 0.63
- Computed CI value (H292 cells [2]; [16]): 1.184
- Combination Fa (H292 cells [2]; [17]): 0.678
- Computed CI value (H292 cells [2]; [17]): 0.914
- Combination Fa (H292 cells [2]; [18]): 0.741
- Computed CI value (H292 cells [2]; [18]): 0.64
- Combination Fa (H292 cells [2]; [19]): 0.827
- Computed CI value (H292 cells [2]; [19]): 0.342
- Combination Fa (H292 cells [2]; [20]): 0.885
- Computed CI value (H292 cells [2]; [20]): 0.216
- Combination Fa (H292 cells [2]; [21]): 0.904
- Computed CI value (H292 cells [2]; [21]): 0.235
- anti-tumor activity of combination with paclitaxel (H292 NSCLC xenografts): significant anti-tumor activity versus either single agent alone
- Combination Fa (MIAPACA2T2 cells [3]; [22]): 0.718
- Computed CI value (MIAPACA2T2 cells [3]; [22]): 0.691
- Combination Fa (MIAPACA2T2 cells [3]; [23]): 0.7359
- Computed CI value (MIAPACA2T2 cells [3]; [23]): 0.751
- Combination Fa (MIAPACA2T2 cells [3]; [24]): 0.8028
- Computed CI value (MIAPACA2T2 cells [3]; [24]): 0.72
- Combination Fa (MIAPACA2T2 cells [3]; [25]): 0.8794
- Computed CI value (MIAPACA2T2 cells [3]; [25]): 0.677
- Combination Fa (MIAPACA2T2 cells [3]; [26]): 0.9677
- Computed CI value (MIAPACA2T2 cells [3]; [26]): 0.655
- Combination Fa (MIAPACA2T2 cells [3]; [27]): 0.9854
- Computed CI value (MIAPACA2T2 cells [3]; [27]): 0.649
- Combination Fa (MIAPACA2T2 cells [3]; [28]): 0.9132
- Computed CI value (MIAPACA2T2 cells [3]; [28]): 0.729
- Combination Fa (H292 cells [4]; [29]): 0.6656
- Computed CI value (H292 cells [4]; [29]): 0.92
- Combination Fa (H292 cells [4]; [30]): 0.7749
- Computed CI value (H292 cells [4]; [30]): 0.728
- Combination Fa (H292 cells [4]; [31]): 0.8617
- Computed CI value (H292 cells [4]; [31]): 0.658
- Combination Fa (H292 cells [4]; [32]): 0.8929
- Computed CI value (H292 cells [4]; [32]): 0.704
- Combination Fa (H292 cells [4]; [33]): 0.9417
- Computed CI value (H292 cells [4]; [33]): 0.749
- Combination Fa (H292 cells [4]; [34]): 0.957
- Computed CI value (H292 cells [4]; [34]): 0.85
- Combination Fa (H292 cells [4]; [35]): 0.974
- Computed CI value (H292 cells [4]; [35]): 0.94
- Combination Fa (MIAPACA2T2 cells [5]; [36]): 0.599
- Computed CI value (MIAPACA2T2 cells [5]; [36]): 1.117
- Combination Fa (MIAPACA2T2 cells [5]; [37]): 0.66
- Computed CI value (MIAPACA2T2 cells [5]; [37]): 1.094
- Combination Fa (MIAPACA2T2 cells [5]; [38]): 0.787
- Computed CI value (MIAPACA2T2 cells [5]; [38]): 0.962
- Combination Fa (MIAPACA2T2 cells [5]; [39]): 0.93
- Computed CI value (MIAPACA2T2 cells [5]; [39]): 0.793
- Combination Fa (MIAPACA2T2 cells [5]; [40]): 0.969
- Computed CI value (MIAPACA2T2 cells [5]; [40]): 0.825
- Combination Fa (MIAPACA2T2 cells [5]; [41]): 0.989
- Computed CI value (MIAPACA2T2 cells [5]; [41]): 0.826
- Combination Fa (MIAPACA2T2 cells [5]; [42]): 0.993
- Computed CI value (MIAPACA2T2 cells [5]; [42]): 0.981
- Combination Fa (PSN1 cells; [43]): 0.4007
- Computed CI value (PSN1 cells; [43]): 0.981
- Combination Fa (PSN1 cells; [44]): 0.3585
- Computed CI value (PSN1 cells; [44]): 1.28
- Combination Fa (PSN1 cells; [45]): 0.4649
- Computed CI value (PSN1 cells; [45]): 1.168
- Combination Fa (PSN1 cells; [46]): 0.6137
- Computed CI value (PSN1 cells; [46]): 1.087
- Combination Fa (PSN1 cells; [47]): 0.8505
- Computed CI value (PSN1 cells; [47]): 0.852
- Combination Fa (PSN1 cells; [48]): 0.9402
- Computed CI value (PSN1 cells; [48]): 0.836
- Combination Fa (PSN1 cells; [49]): 0.9731
- Computed CI value (PSN1 cells; [49]): 0.916
- Combination Fa (A549 cells [6]; [29]): 0.6362
- Computed CI value (A549 cells [6]; [29]): 0.639
- Combination Fa (A549 cells [6]; [30]): 0.6087
- Computed CI value (A549 cells [6]; [30]): 0.863
- Combination Fa (A549 cells [6]; [31]): 0.7048
- Computed CI value (A549 cells [6]; [31]): 0.786
- Combination Fa (A549 cells [6]; [32]): 0.7817
- Computed CI value (A549 cells [6]; [32]): 0.77
- Combination Fa (A549 cells [6]; [33]): 0.9048
- Computed CI value (A549 cells [6]; [33]): 0.736
- Combination Fa (A549 cells [6]; [34]): 0.95
- Computed CI value (A549 cells [6]; [34]): 0.759
- Combination Fa (A549 cells [6]; [35]): 0.9687
- Computed CI value (A549 cells [6]; [35]): 0.869
- Combination Fa (A549 cells [7]; [15]): 0.669
- Computed CI value (A549 cells [7]; [15]): 0.846
- Combination Fa (A549 cells [7]; [16]): 0.651
- Computed CI value (A549 cells [7]; [16]): 1.064
- Combination Fa (A549 cells [7]; [17]): 0.693
- Computed CI value (A549 cells [7]; [17]): 0.882
- Combination Fa (A549 cells [7]; [18]): 0.712
- Computed CI value (A549 cells [7]; [18]): 0.922
- Combination Fa (A549 cells [7]; [19]): 0.834
- Computed CI value (A549 cells [7]; [19]): 0.363
- Combination Fa (A549 cells [7]; [20]): 0.918
- Computed CI value (A549 cells [7]; [20]): 0.132
- Combination Fa (A549 cells [7]; [21]): 0.948
- Computed CI value (A549 cells [7]; [21]): 0.087

From patent US20250228861A1, “Cancer Treatments Using MTA-Cooperative PRMT5 Inhibitors” (AMGEN INC., priority 2022, published 2025)
